What is called IC50 is the point on the concentration scale where inhibition reaches its midpoint.

The structures appear in SMILES notation.

The assay has as its system GM01896 cells (MPS II dermal fibroblasts). Kind of assay: Assay 1: MPS cellular assay, MPS II (heparan sulfate disaccharide biomarkers by LC-MS). It is filed as cell-based, human. The settings on record: Homo sapiens, Fibroblast, Assay 1 for MPS II, heparan sulfate disaccharide biomarkers (I2a4, I2a6, I2S0 and/or I2S6), read-out: IC50 Range. A digest of the protocol:
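MPS II patient dermal fibroblasts (GM01896) treated with compound at ≤30 μM for 4 to 21 days. Heparan sulfate GAGs isolated by anion exchange, digested with heparinases I-III, aniline-tagged against [13C6]aniline standards and quantified by LC-MS; IC50 from curve fitting. Viability monitored by alamar blue or ATP.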
On to `Clc1ccc(Nc2cc(-c3ccc4nn(CC5CC5)cc4c3)nc(N3CCOCC3)n2)cc1` [(4-chlorophenyl){6-[2-(cyclopropylmethyl)(2H-indazol-5-yl)]-2-morpholin-4-ylpyrimidin-4-yl}amine], for which the IC50 was in the range of 1000 to 5000 nM.

For the molecule `Clc1ccc(Nc2cc(-c3ccc4cn(CC5CC5)nc4c3)nc(N3CCOCC3)n2)cc1` [(4-chlorophenyl){6-[2-(cyclopropylmethyl)(2H-indazol-6-yl)]-2-morpholin-4-ylpyrimidin-4-yl}amine], the IC50 is 1000 to 5000 nM.

Turning to `Cc1nc2cc(-c3cc(Nc4ccc(Cl)cc4)nc(N4CCOCC4)n3)ccc2n1CCN1CCOCC1` [(4-chlorophenyl){6-[2-methyl-1-(2-morpholin-4-ylethyl)benzimidazol-5-yl]-2-morpholin-4-ylpyrimidin-4-yl}amine], the IC50 was 1000 to 5000 nM.

For `Cc1nc2ccc(-c3cc(Nc4ccc(Cl)cc4)nc(N4CCOCC4)n3)cc2n1CCN1CCOCC1` [(4-chlorophenyl){6-[2-methyl-1-(2-morpholin-4-ylethyl)benzimidazol-6-yl]-2-morpholin-4-ylpyrimidin-4-yl}amine], the IC50 was 500 to 1000 nM.

`Cc1nc2cc(-c3cc(Nc4ccc(Cl)cc4)nc(N4CCOCC4)n3)ccc2n1CCN1CCCC1` [(4-chlorophenyl){6-[2-methyl-1-(2-pyrrolidinylethyl)benzimidazol-5-yl]-2-morpholin-4-ylpyrimidin-4-yl}amine]: the IC50 fell in the range of 500 to 1000 nM.

In the case of `Cc1nc2ccc(-c3cc(Nc4ccc(Cl)cc4)nc(N4CCOCC4)n3)cc2n1CCN1CCCC1` [(4-chlorophenyl){6-[2-methyl-1-(2-pyrrolidinylethyl)benzimidazol-6-yl]-2-morpholin-4-ylpyrimidin-4-yl}amine], the IC50 is 1000 to 5000 nM.

As for `Cc1nc2ccc(-c3cc(Nc4ccc(Cl)cc4)nc(N4CCOCC4)n3)cc2n1CCCN1CCOCC1` [(4-chlorophenyl){6-[2-methyl-1-(3-morpholin-4-ylpropyl)benzimidazol-6-yl]-2-morpholin-4-ylpyrimidin-4-yl}amine], the IC50 fell in the range of 1000 to 5000 nM.

In the case of `Cc1nc2ccc(-c3cc(Nc4ccc(Cl)cc4)nc(N4CCOCC4)n3)cc2n1CCCN1CCCC1` [(4-chlorophenyl){6-[2-methyl-1-(3-pyrrolidinylpropyl)benzimidazol-6-yl]-2-morpholin-4-ylpyrimidin-4-yl}amine], the IC50 fell in the range of 500 to 1000 nM.

With `Cc1nn(CCN2CCOCC2)c2cc(-c3cc(Nc4ccc(Cl)cc4)nc(N4CCOCC4)n3)ccc12` [(4-chlorophenyl){6-[3-methyl-1-(2-morpholin-4-ylethyl)(1H-indazol-6-yl)]-2-morpholin-4-ylpyrimidin-4-yl}amine], the IC50 is 500 to 1000 nM.

On to `Cc1nn(CCN2CCCC2)c2cc(-c3cc(Nc4ccc(Cl)cc4)nc(N4CCOCC4)n3)ccc12` [(4-chlorophenyl){6-[3-methyl-1-(2-pyrrolidinylethyl)(1H-indazol-6-yl)]-2-morpholin-4-ylpyrimidin-4-yl}amine], for which the IC50 lay within 1000 to 5000 nM.

With `Cc1nn(CCCN2CCOCC2)c2cc(-c3cc(Nc4ccc(Cl)cc4)nc(N4CCOCC4)n3)ccc12` [(4-chlorophenyl){6-[3-methyl-1-(3-morpholin-4-ylpropyl)(1H-indazol-6-yl)]-2-morpholin-4-ylpyrimidin-4-yl}amine], the half-inhibitory concentration (IC50) was in the range of 1000 to 5000 nM.

For the molecule `Cc1nn(CCCN2CCCC2)c2cc(-c3cc(Nc4ccc(Cl)cc4)nc(N4CCOCC4)n3)ccc12` [(4-chlorophenyl){6-[3-methyl-1-(3-pyrrolidinylpropyl)(1H-indazol-6-yl)]-2-morpholin-4-ylpyrimidin-4-yl}amine], the IC50 lay within 500 to 1000 nM.

For `Cn1nc(CCN2CCOCC2)c2cc(F)c(-c3cc(Nc4ccc(Cl)cc4)nc(N4CCOCC4)n3)cc21` [(4-chlorophenyl){6-[5-fluoro-1-methyl-3-(2-morpholin-4-ylethyl)(1H-indazol-6-yl)]-2-morpholin-4-ylpyrimidin-4-yl}amine], the IC50 was in the range of 500 to 1000 nM.

As for `Cn1cnc2ccc(-c3cc(Nc4ccc(F)cc4)nc(N4CCOCC4)n3)cc21` [(4-fluorophenyl)[6-(1-methylbenzimidazol-6-yl)-2-morpholin-4-ylpyrimidin-4-yl]amine], the IC50 lay in the range of 1000 to 5000 nM.

Take `Cn1nc(CCN2CCOCC2)c2ccc(-c3cc(Nc4ccc(F)cc4)nc(N4CCOCC4)n3)cc21` [(4-fluorophenyl){6-[1-methyl-3-(2-morpholin-4-ylethyl)(1H-indazol-6-yl)]-2-morpholin-4-ylpyrimidin-4-yl}amine]: the IC50 is 1000 to 5000 nM.

As for `Cn1ncc2ccc(-c3cc(Nc4ccc(-c5ncc[nH]5)cc4)nc(N4CCOCC4)n3)cc21` [(4-imidazol-2-ylphenyl)[6-(1-methyl(1H-indazol-6-yl))-2-morpholin-4-ylpyrimidin-4-yl]amine], the IC50 is less than 500 nM.

As for `Cn1nc(CCN2CCOCC2)c2ccc(-c3cc(Nc4ccc(-c5ncc[nH]5)cc4)nc(N4CCOCC4)n3)cc21` [(4-imidazol-2-ylphenyl){6-[1-methyl-3-(2-morpholin-4-ylethyl)(1H-indazol-6-yl)]-2-morpholin-4-ylpyrimidin-4-yl}amine], the IC50 was in the range of 1000 to 5000 nM.

Consider `Cn1ncc2ccc(-c3cc(Nc4ccc(-c5c[nH]cn5)cc4)nc(N4CCOCC4)n3)cc21` [(4-imidazol-4-ylphenyl)[6-(1-methyl(1H-indazol-6-yl))-2-morpholin-4-ylpyrimidin-4-yl]amine], for which the IC50 is 500 to 1000 nM.

With `Cn1nc(CCN2CCOCC2)c2ccc(-c3cc(Nc4ccc(-c5c[nH]cn5)cc4)nc(N4CCOCC4)n3)cc21` [(4-imidazol-4-ylphenyl){6-[1-methyl-3-(2-morpholin-4-ylethyl)(1H-indazol-6-yl)]-2-morpholin-4-ylpyrimidin-4-yl}amine], the IC50 lay within 1000 to 5000 nM.

In the case of `COc1ccc(Nc2cc(-c3ccc4cnn(C)c4c3)nc(N3CCOCC3)n2)cc1` [(4-methoxyphenyl)[6-(1-methyl(1H-indazol-6-yl))-2-morpholin-4-ylpyrimidin-4-yl]amine], the IC50 was 1000 to 5000 nM.

For `COc1ccc(Nc2cc(-c3ccc4ncn(C)c4c3)nc(N3CCOCC3)n2)cc1` [(4-methoxyphenyl)[6-(1-methylbenzimidazol-6-yl)-2-morpholin-4-ylpyrimidin-4-yl]amine], the IC50 lay within 1000 to 5000 nM.

`CNC(=O)c1ccc(Nc2cc(-c3ccc4nc(C)n(C)c4c3)nc(N3CCOCC3)n2)cc1` [(4-{[6-(1,2-dimethylbenzimidazol-6-yl)-2-morpholin-4-ylpyrimidin-4-yl]amino}phenyl)-N-methylcarboxamide]: the IC50 was less than 500 nM.

With `CNC(=O)c1ccc(Nc2cc(-c3ccc4c(C)nn(C)c4c3)nc(N3CCOCC3)n2)cc1` [(4-{[6-(1,3-dimethyl(1H-indazol-6-yl))-2-morpholin-4-ylpyrimidin-4-yl]amino}phenyl)-N-methylcarboxamide], the IC50 was less than 500 nM.

As to `CNC(=O)c1ccc(Nc2cc(-c3ccc4cnn(C5CCC5)c4c3)nc(N3CCOCC3)n2)cc1` [(4-{[6-(1-cyclobutyl(1H-indazol-6-yl))-2-morpholin-4-ylpyrimidin-4-yl]amino}phenyl)-N-methylcarboxamide], the IC50 is less than 500 nM.

Consider `CNC(=O)c1ccc(Nc2cc(-c3ccc4nc(C)n(C5CCC5)c4c3)nc(N3CCOCC3)n2)cc1` [(4-{[6-(1-cyclobutyl-2-methylbenzimidazol-6-yl)-2-morpholin-4-ylpyrimidin-4-yl]amino}phenyl)-N-methylcarboxamide], for which the IC50 was less than 500 nM.

Regarding `CNC(=O)c1ccc(Nc2cc(-c3ccc4ncn(C5CCC5)c4c3)nc(N3CCOCC3)n2)cc1` [(4-{[6-(1-cyclobutylbenzimidazol-6-yl)-2-morpholin-4-ylpyrimidin-4-yl]amino}phenyl)-N-methylcarboxamide], the IC50 is less than 500 nM.

For the molecule `CNC(=O)c1ccc(Nc2cc(-c3ccc4c(cnn4C4CC4)c3)nc(N3CCOCC3)n2)cc1` [(4-{[6-(1-cyclopropyl(1H-indazol-5-yl))-2-morpholin-4-ylpyrimidin-4-yl]amino}phenyl)-N-methylcarboxamide], the half-inhibitory concentration (IC50) was 1000 to 5000 nM.

`CNC(=O)c1ccc(Nc2cc(-c3ccc4cnn(C5CC5)c4c3)nc(N3CCOCC3)n2)cc1` [(4-{[6-(1-cyclopropyl(1H-indazol-6-yl))-2-morpholin-4-ylpyrimidin-4-yl]amino}phenyl)-N-methylcarboxamide]: the IC50 is less than 500 nM.

Turning to `CNC(=O)c1ccc(Nc2cc(-c3ccc4nc(C)n(C5CC5)c4c3)nc(N3CCOCC3)n2)cc1` [(4-{[6-(1-cyclopropyl-2-methylbenzimidazol-6-yl)-2-morpholin-4-ylpyrimidin-4-yl]amino}phenyl)-N-methylcarboxamide], the IC50 was less than 500 nM.

As to `CNC(=O)c1ccc(Nc2cc(-c3ccc4c(c3)ncn4C3CC3)nc(N3CCOCC3)n2)cc1` [(4-{[6-(1-cyclopropylbenzimidazol-5-yl)-2-morpholin-4-ylpyrimidin-4-yl]amino}phenyl)-N-methylcarboxamide], the IC50 lay in the range of 500 to 1000 nM.

Take `CNC(=O)c1ccc(Nc2cc(-c3ccc4ncn(C5CC5)c4c3)nc(N3CCOCC3)n2)cc1` [(4-{[6-(1-cyclopropylbenzimidazol-6-yl)-2-morpholin-4-ylpyrimidin-4-yl]amino}phenyl)-N-methylcarboxamide]: the IC50 was less than 500 nM.

Regarding `Cn1ncc2ccc(-c3cc(Nc4ccc(NS(C)(=O)=O)cc4)nc(N4CCOCC4)n3)cc21` [(4-{[6-(1-methyl(1H-indazol-6-yl))-2-morpholin-4-ylpyrimidin-4-yl]amino}phenyl)(methylsulfonyl)amine], the IC50 was 500 to 1000 nM.

Consider `Cn1ncc2ccc(-c3cc(Nc4ccc(C(=O)NC5(C)CC5)cc4)nc(N4CCOCC4)n3)cc21` [(4-{[6-(1-methyl(1H-indazol-6-yl))-2-morpholin-4-ylpyrimidin-4-yl]amino}phenyl)-N-(methylcyclopropyl)carboxamide], for which the IC50 is 1000 to 5000 nM.

As to `CC(C)NC(=O)c1ccc(Nc2cc(-c3ccc4cnn(C)c4c3)nc(N3CCOCC3)n2)cc1` [(4-{[6-(1-methyl(1H-indazol-6-yl))-2-morpholin-4-ylpyrimidin-4-yl]amino}phenyl)-N-(methylethyl)carboxamide], the IC50 was in the range of 500 to 1000 nM.

The record behind these values is patent publication US20190151312A1, “HEPARAN SULFATE BIOSYNTHESIS INHIBITORS FOR THE TREATMENT OF DISEASES” (BioMarin Pharmaceutical Inc., priority 2014, published 2019).
